These results are taken from PubChem BioAssay (NCI).

Among the test systems are DMS 114 small cell lung; DMS 273 small cell lung; HOP-18 NSCLC; SNB-78 CNS; XF 498 CNS; MCF7 breast; MDA-MB-231 breast; MDA-MB-435; NCI/ADR-RES ovarian; DU-145 prostate.
Holding throughout (assay): growth of human tumour cells (NCI), 48 h

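Following 48 hours of exposure in 96-well plates, responses at five concentrations were used to interpolate endpoints linearly. GI50 = concentration required for 50% inhibition of growth. TGI: concentration producing complete growth inhibition.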

For `CCOC(=O)N1C2C=C(C)C(C3C(C)C(=O)N31)N(C(=O)c1ccccc1)O2` (stereo not drawn), the TGI in the assay with DMS 114 small cell lung, in the assay on DMS 273 small cell lung, with HOP-18 NSCLC, in the assay on SNB-78 CNS and in the assay with XF 498 CNS was greater than 100 µM each time.
Regarding `CSc1nc(-c2ccccc2)c2c(n1)-c1ccccc1CC2`, the TGI in the assay on DMS 114 small cell lung, with HOP-18 NSCLC and in the assay on XF 498 CNS was greater than 100 µM each time.
In the case of `N/N=C(\Cc1ccccc1)NN=C(N)N`, the TGI in the assay on HOP-18 NSCLC, in the assay with SNB-78 CNS and with XF 498 CNS was greater than 100 µM throughout.
`O=C1c2ccccc2C(=O)C1C(c1ccc([N+](=O)[O-])cc1)C1C(=O)c2ccccc2C1=O`: the TGI in the assay on DMS 273 small cell lung, in the assay on HOP-18 NSCLC, with SNB-78 CNS and with XF 498 CNS was greater than 100 µM each time.
Take `CCOc1ccc(NC(=O)CC2SC(N)=NC2=O)cc1` (stereo not drawn): the TGI with DMS 114 small cell lung, in the assay with SNB-78 CNS and in the assay on XF 498 CNS was greater than 100 µM each time.
Regarding `COc1cc(Oc2c(O)c(C)c(OC)c(C(C)=O)c2O)c(C(C)=O)c(O)c1C`, the TGI in the assay on DMS 114 small cell lung, in the assay on DMS 273 small cell lung, in the assay on SNB-78 CNS and with XF 498 CNS was greater than 100 µM each time.
For `COC(=O)[C@]1(C)CCC[C@@]2(C)C1CCC1=C[C@@]3(C(C)C)CC[C@]12OO3` (stereo partly drawn), the TGI with DMS 273 small cell lung was 87.2 µM; in the assay on SNB-78 CNS, greater than 100 µM.
As for `COc1ccc(COCC(Cn2ccnc2)OCc2ccc(C(=O)O)cc2)cc1` (stereo not drawn), the TGI in the assay on DMS 114 small cell lung, with SNB-78 CNS and in the assay with XF 498 CNS was greater than 100 µM throughout.
Turning to `CC(=O)Oc1ccccc1C(=O)C1c2cccc(O)c2C(=O)c2c(O)cccc21`, the TGI in the assay with DMS 114 small cell lung was 1.28 µM; in the assay on DMS 273 small cell lung, 3.8 µM; in the assay with HOP-18 NSCLC it was 4.87 µM; in the assay with SNB-78 CNS, greater than 24.8 µM; with XF 498 CNS, 0.506 µM.
The matching figures for `COC(=O)C(Cc1nc2ccc(Cl)cc2[nH]c1=O)C(=O)C(=O)Nc1ccccc1[N+](=O)[O-]` (stereo not drawn): greater than 100 µM, greater than 100 µM, greater than 100 µM, greater than 100 µM and greater than 100 µM.
For the compound `CCOC(=O)/C(C#N)=C1\N[C@H](C(=O)OCC)CO1`, the TGI with HOP-18 NSCLC was greater than 100 µM; in the assay on SNB-78 CNS, greater than 100 µM; in the assay on XF 498 CNS, 78.1 µM.
For the compound `CC(=O)NC(CCCN(Cc1ccccc1)C(=O)N(CCCl)N=O)C(=O)NCc1ccccc1` (stereo not drawn), the TGI is greater than 100 µM in the assay on DMS 114 small cell lung; greater than 100 µM with DMS 273 small cell lung; greater than 100 µM in the assay with HOP-18 NSCLC; greater than 100 µM with SNB-78 CNS; greater than 60.4 µM in the assay on XF 498 CNS.
Turning to `CN(C)c1ccc(N=Nc2c([O-])ccc3ccccc23)cc1.[C-]#[O+].[C-]#[O+].[Ir]`, the GI50 with DMS 114 small cell lung was 20.6 µM; in the assay with HOP-18 NSCLC, 17.2 µM; in the assay on MCF7 breast, 15.8 µM; in the assay on MDA-MB-231 breast, 18.8 µM; in the assay with MDA-MB-435, 18.8 µM; with NCI/ADR-RES ovarian, 19.3 µM. Further, the GI50 in the assay with XF 498 CNS is 17 µM. The TGI in the assay with DMS 114 small cell lung turned out to be 36 µM; in the assay with HOP-18 NSCLC, 37.2 µM; in the assay with MCF7 breast, 31.8 µM; in the assay on MDA-MB-231 breast, 36.2 µM; in the assay with MDA-MB-435 it was 46.1 µM; in the assay on NCI/ADR-RES ovarian, 57.7 µM. The TGI with XF 498 CNS was 33.3 µM.
With `CC(CCCOC(c1ccccc1)(c1ccccc1)c1ccccc1)OC(=O)Nc1cc([N+](=O)[O-])cc([N+](=O)[O-])c1` (stereo not drawn), the TGI in the assay with DMS 114 small cell lung and in the assay with DMS 273 small cell lung was greater than 100 µM each time.
`N#Cc1ccccc1NC(=O)c1ccccc1`: the TGI in the assay on DMS 273 small cell lung, with HOP-18 NSCLC, in the assay with SNB-78 CNS and with XF 498 CNS was greater than 100 µM in each case.
For the compound `FC(F)(F)C12C34C=CC5(CCC6(C=CC1(CC3)O6)C52C(F)(F)F)O4` (stereo not drawn), the TGI in the assay on DMS 273 small cell lung, with HOP-18 NSCLC, in the assay on SNB-78 CNS and in the assay with XF 498 CNS was greater than 100 µM throughout.
In the case of `O=C(O)c1c[nH]cc1C(=O)O`, the TGI with DMS 114 small cell lung, in the assay on DMS 273 small cell lung, in the assay on SNB-78 CNS and in the assay on XF 498 CNS was greater than 100 µM in each case.
For `C/C=C(/CCCCNCCCC)[Si](C)(C)C`, the TGI in the assay on DMS 114 small cell lung came out at 33.5 µM; in the assay on DMS 273 small cell lung it was 38.2 µM; in the assay on SNB-78 CNS, 29.7 µM; with XF 498 CNS it was 23.7 µM.
Turning to `O=C(Nc1cc(Cl)c(Cl)cc1Cl)C(=O)C(C(=O)c1ccc(Cl)c(Cl)c1)C1OC(=O)c2ccccc21` (stereo not drawn), the values for the TGI in the assay on DMS 114 small cell lung, in the assay on DMS 273 small cell lung and with SNB-78 CNS were 39.5 µM, 44.5 µM and greater than 100 µM, respectively.
For the compound `O=c1[nH]cc(OCC(F)(F)F)c(=O)[nH]1`, the TGI in the assay on DMS 114 small cell lung, in the assay on DMS 273 small cell lung, in the assay with HOP-18 NSCLC, in the assay with SNB-78 CNS and with XF 498 CNS was greater than 100 µM throughout.
Consider `CC(C)=CC(=O)CC(=O)C(=O)Nc1ccc(Cl)c(Cl)c1`, for which the TGI in the assay with DMS 114 small cell lung, with DMS 273 small cell lung and with SNB-78 CNS was greater than 100 µM in each case.
As to `CN(C)C(=O)C1CCC(=C2C(=O)OC(C)(C)OC2=O)N1C` (stereo not drawn), the TGI in the assay on DMS 114 small cell lung, in the assay on DMS 273 small cell lung, in the assay on HOP-18 NSCLC, with SNB-78 CNS and in the assay with XF 498 CNS was greater than 100 µM each time.
As to `O=C1CC2C(=O)N(Cc3ccccc3)C1C(S(=O)(=O)c1ccccc1)C2S(=O)(=O)c1ccccc1` (stereo not drawn), the TGI in the assay with DMS 114 small cell lung was found to be 2.72 µM; in the assay on DMS 273 small cell lung, 18.6 µM; in the assay with HOP-18 NSCLC it was 13.8 µM; with SNB-78 CNS, 36.1 µM; with XF 498 CNS, 3.53 µM.
In the case of `Cc1c(C)c2ccc(OC/C=C3\CCC(=O)O3)cc2oc1=O`, the GI50 is 12.2 µM in the assay on DU-145 prostate; 11 µM with MCF7 breast; 16 µM in the assay with MDA-MB-231 breast; 17.1 µM in the assay on MDA-MB-435; 16.9 µM in the assay on NCI/ADR-RES ovarian. Moreover, the TGI with DU-145 prostate is 26.1 µM; with MCF7 breast, 32.5 µM; with MDA-MB-231 breast it was 30 µM; with MDA-MB-435, 34.6 µM; with NCI/ADR-RES ovarian, 35.7 µM.
`COc1ccccc1-c1c(C)nn2c(NCc3ccccn3)cc(C)nc12`: the GI50 in the assay on DU-145 prostate is greater than 40.2 µM; in the assay on MCF7 breast, 2.92 µM; in the assay with MDA-MB-231 breast, 34.7 µM; with MDA-MB-435, 23 µM; in the assay with NCI/ADR-RES ovarian it was 24.5 µM. In addition, the TGI with DU-145 prostate, in the assay with MCF7 breast, in the assay with MDA-MB-231 breast, in the assay with MDA-MB-435 and in the assay with NCI/ADR-RES ovarian was greater than 50 µM in each case.
